Experimental data: US8859009B2, “Method of fixing antibacterial agent and article obtained by the method” (Hiroshima University, priority 2008, dated 2014)

Tested on: strain GDH18 of Candida Albicans
Experiment: Antibacterial-property test on hemocytometer cover glass test pieces (colour change of agar), Example 3
Format: cell-based
Experimental: A hemocytometer cover glass was used as a test piece of an article on which an antibacterial agent is fixed. A strain GDH18 of Candida Albicans was used as the bacteria for use in the antibacterial-property test. The bacteria was incubated on Sabouraud agar for 18 hours and a bacteria solution having bacteria concentration of 1×10^6 cells/mL was prepared using ultra pure water (MQ water). The test pieces were immersed for 1 minute in approximately 30 mL of ozone water (0.4 to 0.6 ppm) produced by using ultra pure water and “Ozone Dash” manufactured by Ozone Total System Co., Ltd. The test pieces were then drained on a filtering paper and immersed for 5 minutes in following aqueous solutions, respectively: Each test piece was then taken out of the aqueous solution, immediately washed with water such that excess antibacterial composition was removed, whereby test pieces for the antibacterial-property test were obtained. […] Each test piece was left for 2 hours at the room temperature to wait for sedimentation of the bacteria. Thereafter, 5 mL of Sabouraud agar containing chlorophenol red as a pH indicator (Candida yellow agar, manufactured by Fuji Pharma Co., Ltd.) was added to each test piece and the respective test pieces were continually incubated at 37° C. […] Antibacterial property was evaluated using such change in color as described above of the agar as an index.

Structure (SMILES): CCCCCCCCCCCCCCCCCC[N+](C)(C)CCC[Si](OCC)(OCC)OCC.[Cl-] [EtAC, octadecyldimethyl(3-triethoxysilylpropyl)ammonium chloride]
- antibacterial performance (control without ozone water treatment, EtAC treatment 5 minutes): hardly exhibited antibacterial performance
- color of the agar (upper control: immersed in MQ water (no ozone water), then 70% ethanol solution of EtAC 5 minutes, 45 hours): strongly yellow
- number of bacteria cells (upper control: immersed in MQ water (no ozone water), then 70% ethanol solution of EtAC 5 minutes, 45 hours, from agar colour): ≥ 5e+07 mL⁻¹
